From patent US11986532B2 (Arvinas Operations, Inc., priority 2021, dated 2024)

Molecular target: T1, BCL6 (Homo sapiens, UniProt P41182)
T1 construct: endogenous in cells; host or cells: T47D breast cancer epithelial cells
Assay: Immunofluorescence protocol for high content imaging of BCL6 (degradation) in T47D cells, 3 days compound treatment
Type: cell-based
Conditions: T47D cells, 3 days compound treatment; for DC50: read-out: Mean DC50 (nM)* category; for Dmax: read-out: Mean Dmax (%)** category
How it was run: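 T47D, RPMI1640/10% FBS; cpd 11-pt 3-fold, top 0.1 or 1 μM final; 3 d, 37° C. Fix 4% PFA, perm 0.1% Triton, block 3% BSA; anti-BCL6 1:300 o/n 4° C; Alexa-488 2°, CellMask-647, Hoechst. Imaged 10×, 4 fields/well.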

SMILES	DC50 [nM]	Dmax [%]
CNC(=O)COc1cc2cc(Nc3nc(N4CCC(O[C@H]5C[C@H](N6CCC(c7ccc8c(c7F)CN(C7CCC(=O)NC7=O)C8=O)CC6)C5)CC4)ncc3Cl)ccc2n(C(C)C)c1=O (some centres unmarked) [Compound 81, 2-({6-[(5-chloro-2-{4-[(1r,3r)-3-{4-[2-(2,6-dioxopiperidin-3-yl)-4-fluoro-1-oxo-2,3-dihydro-1H-isoindol-5-yl]piperidin-1-yl}cyclobutoxy]piperidin-1-yl}pyrimidin-4-yl)amino]-2-oxo-1-(propan-2-yl)-1,2-dihydroquinolin-3-yl}oxy)-N-methylacetamide]	< 10	50 to 70
CNC(=O)COc1cc2cc(Nc3nc(N4CCC(F)(CN5CCC6(CC5)CCN(c5cccc7c5CN(C5CCC(=O)NC5=O)C7=O)CC6)CC4)ncc3Cl)ccc2n(C(C)C)c1=O (centres unmarked) [Compound 82, 2-{[6-({5-chloro-2-[4-({9-[2-(2,6-dioxopiperidin-3-yl)-1-oxo-2,3-dihydro-1H-isoindol-4-yl]-3,9-diazaspiro[5.5]undecan-3-yl}methyl)-4-fluoropiperidin-1-yl]pyrimidin-4-yl}amino)-2-oxo-1-(propan-2-yl)-1,2-dihydroquinolin-3-yl]oxy}-N-methylacetamide]	< 10	≥ 70
CNC(=O)COc1cc2cc(Nc3nc(N4CCC(CN5CCC6(CC5)CN(c5cc(OC)c7c(c5)C(=O)N(C5CCC(=O)NC5=O)C7=O)C6)CC4)ncc3Cl)ccc2n(C(C)C)c1=O (centres unmarked) [Compound 83, 2-{[6-({5-chloro-2-[4-({2-[2-(2,6-dioxopiperidin-3-yl)-7-methoxy-1,3-dioxo-2,3-dihydro-1H-isoindol-5-yl]-2,7-diazaspiro [3.5]nonan-7-yl}methyl)piperidin-1-yl]pyrimidin-4-yl}amino)-2-oxo-1-(propan-2-yl)-1,2-dihydroquinolin-3-yl]oxy}-N-methylacetamide]	< 10	50 to 70
CNC(=O)COc1cc2cc(Nc3nc(N4CCC(CN5CC6(CCN(c7cc8c(cc7F)C(=O)N(C7CCC(=O)NC7=O)C8)CC6)C5)CC4)ncc3Cl)ccc2n(C(C)C)c1=O (centres unmarked) [Compound 84]	< 10	≥ 70
CNC(=O)COc1cc2cc(Nc3nc(N4CCC(CN5CC6(CCN(c7cc8c(cc7OC)C(=O)N(C7CCC(=O)NC7=O)C8)CC6)C5)CC4)ncc3Cl)ccc2n(C(C)C)c1=O (centres unmarked) [Compound 85, 2-{[6-({5-chloro-2-[4-({7-[2-(2,6-dioxopiperidin-3-yl)-6-methoxy-1-oxo-2,3-dihydro-1H-isoindol-5-yl]-2,7-diazaspiro[3.5]nonan-2-yl}methyl)piperidin-1-yl]pyrimidin-4-yl}amino)-2-oxo-1-(propan-2-yl)-1,2-dihydroquinolin-3-yl]oxy}-N-methylacetamide]	< 10	50 to 70
CNC(=O)COc1cc2cc(Nc3nc(N4CCC(CN5CC6(CCN(c7cc(F)c8c(c7)CN(C7CCC(=O)NC7=O)C8=O)CC6)C5)CC4)ncc3Cl)ccc2n(C(C)C)c1=O (centres unmarked) [Compound 86, 2-{[6-({5-chloro-2-[4-({7-[2-(2,6-dioxopiperidin-3-yl)-7-fluoro-1-oxo-2,3-dihydro-1H-isoindol-5-yl]-2,7-diazaspiro[3.5]nonan-2-yl}methyl)piperidin-1-yl]pyrimidin-4-yl}amino)-2-oxo-1-(propan-2-yl)-1,2-dihydroquinolin-3-yl]oxy}-N-methylacetamide]	< 10	50 to 70
CNC(=O)COc1cc2cc(Nc3nc(N4CCC(CN5CC6(CCN(c7ccc8c(c7F)CN(C7CCC(=O)NC7=O)C8=O)CC6)C5)CC4)ncc3Cl)ccc2n(C(C)C)c1=O (centres unmarked) [Compound 87, 2-{[6-({5-chloro-2-[4-({7-[2-(2,6-dioxopiperidin-3-yl)-4-fluoro-1-oxo-2,3-dihydro-1H-isoindol-5-yl]-2,7-diazaspiro[3.5]nonan-2-yl}methyl)piperidin-1-yl]pyrimidin-4-yl}amino)-2-oxo-1-(propan-2-yl)-1,2-dihydroquinolin-3-yl]oxy}-N-methylacetamide]	< 10	50 to 70
CNC(=O)COc1cc2cc(Nc3nc(N4CCC(CN5CC6(CCN(c7ccc8c(c7OC)CN(C7CCC(=O)NC7=O)C8=O)CC6)C5)CC4)ncc3Cl)ccc2n(C(C)C)c1=O (centres unmarked) [Compound 88, 2-{[6-({5-chloro-2-[4-({7-[2-(2,6-dioxopiperidin-3-yl)-4-methoxy-1-oxo-2,3-dihydro-1H-isoindol-5-yl]-2,7-diazaspiro[3.5]nonan-2-yl}methyl)piperidin-1-yl]pyrimidin-4-yl}amino)-2-oxo-1-(propan-2-yl)-1,2-dihydroquinolin-3-yl]oxy}-N-methylacetamide]	< 10	< 50
CNC(=O)COc1cc2cc(Nc3nc(N4CCN(C(C)(C)C5CCN(c6ccc7c(c6F)CN(C6CCC(=O)NC6=O)C7=O)CC5)CC4)ncc3Cl)ccc2n(C(C)C)c1=O (centres unmarked) [Compound 89, 2-{[6-({5-chloro-2-[4-(2-{1-[2-(2,6-dioxopiperidin-3-yl)-4-fluoro-1-oxo-2,3-dihydro-1H-isoindol-5-yl]piperidin-4-yl}propan-2-yl)piperazin-1-yl]pyrimidin-4-yl}amino)-2-oxo-1-(propan-2-yl)-1,2-dihydroquinolin-3-yl]oxy}-N-methylacetamide]	< 10	50 to 70
CNC(=O)COc1cc2cc(Nc3nc(N4CCC(CN5CCC6(CN(c7ccc8c(c7)CN(C7CCC(=O)NC7=O)C8=O)C6)C(F)(F)C5)CC4)ncc3Cl)ccc2n(C(C)C)c1=O (centres unmarked) [Compound 90, 2-{[6-({5-chloro-2-[4-({2-[2-(2,6-dioxopiperidin-3-yl)-1-oxo-2,3-dihydro-1H-isoindol-5-yl]-5,5-difluoro-2,7-diazaspiro[3.5]nonan-7-yl}methyl)piperidin-1-yl]pyrimidin-4-yl}amino)-2-oxo-1-(propan-2-yl)-1,2-dihydroquinolin-3-yl]oxy}-N-methylacetamide]	< 10	50 to 70
CNC(=O)COc1cc2cc(Nc3nc(N4CCC(CN5CCC6(CN(c7cccc8c7C(=O)N(C7CCC(=O)NC7=O)C8=O)C6)C(F)(F)C5)CC4)ncc3Cl)ccc2n(C(C)C)c1=O (centres unmarked) [Compound 91, 2-{[6-({5-chloro-2-[4-({2-[2-(2,6-dioxopiperidin-3-yl)-1,3-dioxo-2,3-dihydro-1H-isoindol-4-yl]-5,5-difluoro-2,7-diazaspiro[3.5]nonan-7-yl}methyl)piperidin-1-yl]pyrimidin-4-yl}amino)-2-oxo-1-(propan-2-yl)-1,2-dihydroquinolin-3-yl]oxy}-N-methylacetamide]	< 10	50 to 70
CNC(=O)COc1cc2cc(Nc3nc(N4CCC(O[C@H]5C[C@H](N6CCC(c7cc(F)c8c(c7)CN(C7CCC(=O)NC7=O)C8=O)CC6)C5)CC4)ncc3Cl)ccc2n(C(C)C)c1=O (some centres unmarked) [Compound 92, 2-({6-[(5-chloro-2-{4-[(1r,3r)-3-{4-[2-(2,6-dioxopiperidin-3-yl)-7-fluoro-1-oxo-2,3-dihydro-1H-isoindol-5-yl]piperidin-1-yl}cyclobutoxy]piperidin-1-yl}pyrimidin-4-yl)amino]-2-oxo-1-(propan-2-yl)-1,2-dihydroquinolin-3-yl}oxy)-N-methylacetamide]	< 10	≥ 70
CNC(=O)COc1cc2cc(Nc3nc(N4CCC(F)(CN5CCC6(CC5)CCN(c5c(F)ccc7c5C(=O)N(C5CCC(=O)NC5=O)C7)CC6)CC4)ncc3Cl)ccc2n(C(C)C)c1=O (centres unmarked) [Compound 93, 2-{[6-({5-chloro-2-[4-({9-[2-(2,6-dioxopiperidin-3-yl)-5-fluoro-3-oxo-2,3-dihydro-1H-isoindol-4-yl]-3,9-diazaspiro [5.5]undecan-3-yl}methyl)-4-fluoropiperidin-1-yl]pyrimidin-4-yl}amino)-2-oxo-1-(propan-2-yl)-1,2-dihydroquinolin-3-yl]oxy}-N-methylacetamide]	≥ 100	≥ 70
CNC(=O)COc1cc2cc(Nc3nc(N4CCC5(CCN(CC6(F)CCN(c7cccc8c7CN(C7CCC(=O)NC7=O)C8=O)CC6)CC5)CC4)ncc3Cl)ccc2n(C(C)C)c1=O (centres unmarked) [Compound 95, 2-{[6-({5-chloro-2-[9-({1-[2-(2,6-dioxopiperidin-3-yl)-1-oxo-2,3-dihydro-1H-isoindol-4-yl]-4-fluoropiperidin-4-yl}methyl)-3,9-diazaspiro [5.5]undecan-3-yl]pyrimidin-4-yl}amino)-2-oxo-1-(propan-2-yl)-1,2-dihydroquinolin-3-yl]oxy}-N-methylacetamide]	< 10	50 to 70
CNC(=O)COc1cc2cc(Nc3nc(N4CCC5(CCN(CC6(F)CCN(c7c(F)ccc8c7CN(C7CCC(=O)NC7=O)C8=O)CC6)CC5)CC4)ncc3Cl)ccc2n(C(C)C)c1=O (centres unmarked) [Compound 96, 2-{[6-({5-chloro-2-[9-({1-[2-(2,6-dioxopiperidin-3-yl)-5-fluoro-1-oxo-2,3-dihydro-1H-isoindol-4-yl]-4-fluoropiperidin-4-yl}methyl)-3,9-diazaspiro[5.5]undecan-3-yl]pyrimidin-4-yl}amino)-2-oxo-1-(propan-2-yl)-1,2-dihydroquinolin-3-yl]oxy}-N-methylacetamide]	< 10	50 to 70
CNC(=O)COc1cc2cc(Nc3nc(N4CCC(F)(CN5CC(N6CCC(c7ccc8c(c7)C(=O)N(C7CCC(=O)NC7=O)C8=O)CC6)C5)CC4)ncc3Cl)ccc2n(C(C)C)c1=O (centres unmarked) [Compound 97, 2-({6-[(5-chloro-2-{4-[(3-{4-[2-(2,6-dioxopiperidin-3-yl)-1,3-dioxo-2,3-dihydro-1H-isoindol-5-yl]piperidin-1-yl}azetidin-1-yl)methyl]-4-fluoropiperidin-1-yl}pyrimidin-4-yl)amino]-2-oxo-1-(propan-2-yl)-1,2-dihydroquinolin-3-yl}oxy)-N-methylacetamide]	< 10	50 to 70
